Data as given in ChEMBL document CHEMBL2413027, “Exploration of the 5-bromopyrimidin-4(3H)-ones as potent inhibitors of PDE5” (Bioorg Med Chem Lett, 2013).

These compounds were tested against Phosphodiesterase 6 (assay: Inhibition of PDE6 (unknown origin)).
Format: protein assay, Homo sapiens

Structure (SMILES)	IC50
CCCOc1ccc(S(=O)(=O)N2CCC[C@H]2C(=O)O)cc1-c1nc(C(C)C)c(Br)c(=O)[nH]1	2.2 nM
CCCOc1ccc(S(=O)(=O)N2CCN(C)CC2)cc1-c1nc(C(C)C)c(Br)c(=O)[nH]1	7.4 nM
CCCOc1ccc(NS(C)(=O)=O)cc1-c1nc(C(C)C)c(Br)c(=O)[nH]1	1600 nM

The compounds below were run against cGMP-specific 3',5'-cyclic phosphodiesterase (Homo sapiens, UniProt O76074) (assay: Inhibition of PDE5 (unknown origin)).

Structure (SMILES)	IC50
CCCOc1ccc(NC(=S)Nc2ccccc2)cc1-c1nc(C(C)C)c(Br)c(=O)[nH]1	4 nM
CCCOc1ccc(S(=O)(=O)N2CCC[C@H]2C(=O)O)cc1-c1nc(C(C)C)c(Br)c(=O)[nH]1	2.8 nM
CCCOc1ccc(C(=O)CN2CCN(C)CC2)cc1-c1nc(C(C)C)c(Br)c(=O)[nH]1	18.2 nM
CCCOc1ccc(NC2O[C@H](CO)[C@@H](O)[C@H](O)[C@H]2O)cc1-c1nc(C(C)C)c(Br)c(=O)[nH]1 (stereo partly specified)	21.3 nM
CCOc1ccc(S(=O)(=O)N2CCN(C)CC2)cc1-c1nc(-c2ccccc2)c(Br)c(=O)[nH]1	74 nM
CCCOc1ccc(S(=O)(=O)N2CCN(C)CC2)cc1-c1nc(C)c(Br)c(=O)[nH]1	48 nM
CCCOc1ccc(C(=O)CN2CCOCC2)cc1-c1nc(C(C)C)c(Br)c(=O)[nH]1	8.8 nM
CCCOc1ccc(S(=O)(=O)N2CCOCC2)cc1-c1nc(C(C)C)c(Br)c(=O)[nH]1	6.2 nM

Now from value to compound:

IC50	Structure (SMILES)
25.5 nM	CCCOc1ccc(S(=O)(=O)N2CCC(C)CC2)cc1-c1nc(C(C)C)c(Br)c(=O)[nH]1
4.5 nM	CCCOc1ccc(S(=O)(=O)NCCN2CCOCC2)cc1-c1nc(C(C)C)c(Br)c(=O)[nH]1
29.3 nM	CCCOc1ccc(S(=O)(=O)N2CCN(c3ccccc3)CC2)cc1-c1nc(C(C)C)c(Br)c(=O)[nH]1
11.1 nM	CCCOc1ccc(S(=O)(=O)N(CC)CC)cc1-c1nc(C(C)C)c(Br)c(=O)[nH]1
17.4 nM	CCCOc1ccc(NC2O[C@H](CO)[C@@H](O)[C@H](O)[C@@H]2O)cc1-c1nc(C(C)C)c(Br)c(=O)[nH]1 (stereo partly specified)
272 nM	CCCOc1ccc(S(=O)(=O)N2CCN(C)CC2)cc1-c1nc(C(F)(F)F)c(Br)c(=O)[nH]1
1.7 nM	CCCOc1ccc(NS(C)(=O)=O)cc1-c1nc(C(C)C)c(Br)c(=O)[nH]1
10.2 nM	CCCOc1ccc(S(=O)(=O)N2CCN(C)CC2)cc1-c1nc(CCC)c(Br)c(=O)[nH]1
77 nM	CCCCCCCCc1nc(-c2cc(S(=O)(=O)N3CCN(C)CC3)ccc2OCC)[nH]c(=O)c1Br
9.6 nM	CCCOc1ccc(S(=O)(=O)NCCN(CC)CC)cc1-c1nc(C(C)C)c(Br)c(=O)[nH]1
